The experiment has as its target Serine/threonine-protein kinase 33 (Homo sapiens, UniProt Q9BYT3). Put plainly: STK33 kinase inhibitors, dose response, biochemical, luminescence, cell-free, retest (AID 2821).

Where a name gives a salt, the structure may show the parent alone. Some results are limits rather than exact numbers.

The term EC50 denotes the concentration giving half of the maximal effect.

Serine/threonine-protein kinase 33, sequence (Q9BYT3 whole entry): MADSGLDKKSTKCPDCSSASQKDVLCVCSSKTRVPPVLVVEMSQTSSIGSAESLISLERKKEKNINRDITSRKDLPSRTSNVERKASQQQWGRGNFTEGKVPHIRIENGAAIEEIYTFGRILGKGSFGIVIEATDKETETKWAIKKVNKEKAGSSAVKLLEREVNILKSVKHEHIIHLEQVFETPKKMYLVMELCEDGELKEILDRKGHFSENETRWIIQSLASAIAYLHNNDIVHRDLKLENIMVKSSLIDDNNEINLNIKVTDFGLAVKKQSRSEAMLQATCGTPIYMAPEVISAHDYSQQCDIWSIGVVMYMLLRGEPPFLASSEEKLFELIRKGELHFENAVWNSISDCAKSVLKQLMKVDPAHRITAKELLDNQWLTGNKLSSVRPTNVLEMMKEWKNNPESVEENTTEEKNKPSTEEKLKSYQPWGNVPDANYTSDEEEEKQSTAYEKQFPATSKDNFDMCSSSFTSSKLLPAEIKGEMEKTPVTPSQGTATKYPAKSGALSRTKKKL

Turning to `CN1CCCC1CCNc1ccc2sc3ccccc3c(=O)c2c1` (stereo not drawn) [2-[2-(1-methyl-2-pyrrolidinyl)ethylamino]-9-thioxanthenone], it took 16.6 µM to reach a half-maximal effect (EC50).

Turning to `CC(C)N=C(S)Nc1ccc2c[nH]nc2c1` [SMR000261130], the half-maximal effective concentration (EC50) was > 120 µM.

For `Cc1cc(N2CCN(C)CC2)nc2ccc(NC(=O)c3ccc(Br)o3)cc12` [SMR000022431], it took 10.3 µM to reach a half-maximal effect (EC50).

As for `CCN(CC)c1ccc(Nc2nc(N3CCOCC3)c3ccccc3n2)cc1` [4-N,4-N-diethyl-1-N-(4-morpholin-4-ylquinazolin-2-yl)benzene-1,4-diamine], the EC50 was > 120 µM.

As for `COc1cc(N=CC2C(=O)Nc3ccccc32)cc(OC)c1OC` (stereo not drawn), the EC50 was determined as 4.93 µM.

Turning to `CN(C)S(=O)(=O)c1cccc(NC(=S)Nc2ccc3cn[nH]c3c2)c1` [MLS001033726], the 50% effective concentration (EC50) was 38.7 µM.

`O=C(c1ccc2c3n(nc2c1)-c1ccccc1CO3)N1CCOCC1` [5H-indazolo[2,3-a][3,1]benzoxazin-9-yl(4-morpholinyl)methanone] yielded an EC50 of 18.4 µM.

Molecule `O=S(=O)(O)c1cccc(N=Nc2c(O)ccc3ccccc23)c1` [SMR000273743] registered a half-maximal effective concentration (EC50) of 3.46 µM.

Regarding `COc1ccc(-c2onc3ccc(C(=O)/C=C/N(C)C)cc23)cc1` [(E)-3-(dimethylamino)-1-[3-(4-methoxyphenyl)-2,1-benzoxazol-5-yl]-2-propen-1-one], the EC50 amounted to 5.29 µM.

The molecule `O=C1NC(=O)/C(=C\c2ccc(O)cc2O)S1` [SMR000274064] came in with an EC50 of 8.73 µM.

Consider `COC(=O)c1cccc2c1-c1ccccc1C2N=O` (stereo not drawn) [(9Z)-9-hydroximinofluorene-4-carboxylic acid methyl ester], for which a half-maximal response (EC50) required 11.8 µM.

For the molecule `CCNC(=S)Nc1ccc2cn[nH]c2c1` [SMR000261305], the response was half-maximal at 49.7 µM (EC50).

As to `CN1CCN(C=NC2=NN(c3cccc(C(F)(F)F)c3)CC2)CC1` [MLS000418536], the EC50 was > 120 µM.

Regarding `CN1CCN(c2ccc(NC(=O)c3ccc(-c4cccc([N+](=O)[O-])c4)o3)cc2)CC1` [N-[4-(4-methylpiperazin-1-yl)phenyl]-5-(3-nitrophenyl)furan-2-carboxamide], the EC50 amounted to 20.2 µM.

With `COc1cc(C=CC(=O)CC(=O)C=Cc2ccc(O)cc2)ccc1O` [demethoxycurcumin], the response was half-maximal at 1.75 µM (EC50).

With `CC[C@H](CO)Nc1nc(Nc2cccc(Cl)c2)c2ncn(C(C)C)c2n1` [(R)-2-(6-(3-chlorophenylamino)-9-isopropyl-9H-purin-2-ylamino)butan-1-ol], the concentration for a half-maximal effect (EC50) was 2.49 µM. The EC50 values of the last two molecules are within 1.5-fold of each other.

Regarding `Cc1ncc(C=C2C(=O)Nc3ccccc32)[nH]1` [3-[(Z)-(2-methyl-1H-imidazol-4-yl)methylidene]-1H-indol-2-one], the half-maximal effective concentration (EC50) was 3.42 µM.

In turn, `CN(C)c1cc2c(c(N(C)C)c1)C(=O)c1ccccc1C2=O` [1,3-bis(dimethylamino)-9,10-anthraquinone] displayed an EC50 of 23.8 µM.

`CCN(CC)c1ccc(/C=C2\C(=O)c3ccc(C(=O)O)cc3C2=O)cc1` [2-[1-(4-Diethylamino-phenyl)-meth-(E)-ylidene]-1,3-dioxo-indan-5-carboxylic acid] registered an EC50 of 5.66 µM. This EC50 is about 4.2-fold lower than that of the molecule before.

For `Cc1ccc(NC(=S)Nc2ccc3cn[nH]c3c2)c(C)c1`, the EC50 was > 120 µM.

The molecule `CCCCCCCCCCCCCCCC[N+](C)(C)CCN(Cc1ccc(OC)cc1)c1ncccn1` [SMR001233380] came in with an EC50 of 35.8 µM.

Molecule `CCCN1C=CC(=C2C(=O)c3ccccc3C2=O)C=C1` [2-(1-propyl-4-pyridinylidene)indene-1,3-dione] displayed an EC50 of 8.93 µM. This EC50 is about 4-fold lower than that of the molecule before.

`CCN(CC)c1ccc(/C=C2/C(=O)c3ccc(C(=O)O)cc3C2=O)cc1` [(2Z)-2-[[4-(diethylamino)phenyl]methylidene]-1,3-dioxoindene-5-carboxylic acid] displayed a concentration giving a half-maximal response (EC50) of 3.83 µM.

Take `CCC(C(=O)Nc1ccc2[nH]ncc2c1)c1ccccc1` (stereo not drawn) [MLS001001015]: the response was half-maximal at 9.54 µM (EC50). Compared with the last molecule, the EC50 is about 2.5-fold higher.

On to `COc1ccc(C(=O)NNC(=O)c2ccccn2)cc1`, for which a half-maximal response (EC50) required 21.8 µM.

For the molecule `COc1ccc(NC(=O)c2cc([N+](=O)[O-])ccc2O)cc1`, the half-maximal effective concentration (EC50) was 18.6 µM.

For the molecule `COc1cc(C=C2SC(N)=NC2=O)ccc1O` [(5Z)-2-azanyl-5-[(3-methoxy-4-oxidanyl-phenyl)methylidene]-1,3-thiazol-4-one], a half-maximal effect (EC50) was put at 0.936 µM.

For `COc1cc(C2c3sc(=O)[nH]c3Sc3c2c(O)n(-c2ccc(C)cc2)c3O)ccc1O` (stereo not drawn) [SMR000414898], the EC50 is > 120 µM.

In turn, `CC(Oc1ccc2c(c1)c1ccnc3c4ccccc4c(=O)n2c13)C(=O)NCCN1CCOCC1` (stereo not drawn) [SMR000652046] displayed a concentration giving a half-maximal response (EC50) of 0.416 µM.

Turning to `CC(C)n1cnc2c(Nc3cccc(Cl)c3)nc(N(CCO)CCCO)nc21`, a half-maximal response (EC50) required 2.86 µM.

With `O=C1C=CC(O)(c2cc(=O)c3c(O)cc(O)cc3o2)C=C1` [SMR000156275], the concentration for a half-maximal effect (EC50) is > 120 µM.

With `Cc1sc2ncnc(N=NCc3cccc(O)c3)c2c1C` [SMR000219295], the EC50 is 17 µM.

Regarding `O=C(Nc1nccs1)c1ccc(N2CCOCC2)c([N+](=O)[O-])c1` [4-morpholin-4-yl-3-nitro-N-(1,3-thiazol-2-yl)benzamide], the half-maximal effective concentration (EC50) stood at 42.1 µM.

`Nc1c(C(=O)O)ccc2c1C(=O)c1ccccc1C2=O` registered a concentration giving a half-maximal response (EC50) of 22.2 µM. Against the preceding molecule, the EC50 is about 1.9-fold lower.

With `O=C(Nc1ccccc1-c1nc2ccccc2[nH]c1=O)c1cccs1` [N-[2-(3-oxo-4H-quinoxalin-2-yl)phenyl]-2-thiophenecarboxamide], the EC50 worked out at 2.1 µM.

For `CN(C)c1nc2sc3c(c2c(=O)n1C)CC(C)(C)OC3` [MLS000071412], the EC50 is > 120 µM.

Take `COc1ccccc1NC(=O)Nc1ncccc1C` [MLS000072334]: a half-maximal effect (EC50) was put at 7.93 µM.

`Oc1ccc(C=NNC(=S)NN=Cc2ccc(O)cc2)cc1` [1,3-bis[(4-oxo-1-cyclohexa-2,5-dienylidene)methylamino]thiourea] had an EC50 of 40.9 µM.

As to `O=C(c1ccc2c3n(nc2c1)-c1ccccc1CO3)N1CCCCC1` [5H-indazolo[2,3-a][3,1]benzoxazin-9-yl(piperidin-1-yl)methanone], the half-maximal effective concentration (EC50) was > 120 µM.

As for `CCn1c(/C=C/c2ccc([N+](=O)[O-])o2)nc2ccccc2c1=O` [3-ethyl-2-[(E)-2-(5-nitro-2-furanyl)ethenyl]-4-quinazolinone], the EC50 is > 120 µM.

`CCn1c2ccc(C)cc2c2nc3cc(C(=O)O)ccc3nc21` [6-ethyl-9-methylindolo[2,3-b]quinoxaline-2-carboxylic acid] registered an EC50 of 17.9 µM.

As for `O=c1c2ccccc2sc2ccc(NCCCN3CCOCC3)cc12`, the response was half-maximal at 16.8 µM (EC50).

As to `COc1cc(-c2cc(=O)c3c(O)c(OC)c(OC)c(O)c3o2)ccc1O` [5,8-dihydroxy-2-(4-hydroxy-3-methoxy-phenyl)-6,7-dimethoxy-chromone], a half-maximal response (EC50) required 9.68 µM.

`O=C(CCc1ccc(O)cc1)c1c(O)cc(O)cc1O` [3-(4-hydroxyphenyl)-1-(2,4,6-trihydroxyphenyl)propan-1-one] gave a concentration for a half-maximal effect (EC50) of 21.4 µM. Compared with the last molecule, the EC50 is about 2.2-fold higher.

As for `CCn1c2ccc(C(C)N=O)cc2c2cc(C(C)N=O)ccc21` (stereo not drawn) [N-[1-[9-ethyl-6-(C-methyl-N-oxidanyl-carbonimidoyl)carbazol-3-yl]ethylidene]hydroxylamine], the EC50 is > 120 µM.

Molecule `O=C(Nc1cccc(-c2cn3cccnc3n2)c1)c1ccc(Br)o1` [5-bromanyl-N-(3-imidazo[1,2-a]pyrimidin-2-ylphenyl)furan-2-carboxamide] came in with a 50% effective concentration (EC50) of 16 µM.

For `COc1ccc(NC(=S)Nc2ccc3cn[nH]c3c2)cc1` [MLS001005420], the EC50 is > 120 µM.

`COc1ccc(C(=O)ON=C(N)c2ccccn2)cc1` [SMR000608101] showed an EC50 of 40.4 µM.

With `CCOc1ccc(Nc2nc(N)c3ccccc3n2)cc1` [N2-(4-ethoxyphenyl)quinazoline-2,4-diamine;hydrochloride], the EC50 was > 120 µM.

Molecule `CCN1C=CC(=C2C(=O)c3ccccc3C2=O)C=C1` [2-(1-ethyl-4-pyridinylidene)indene-1,3-dione] came in with an EC50 of 14 µM.

Molecule `CC(=O)N(C)c1ccc(N=Cc2c(O)ccc3ccccc23)cc1` [MLS001212262] came in with an EC50 of 3.76 µM.

The molecule `NC(=S)c1cn(C2OC(CO)C(O)C2O)c2ncnc(N)c12` (stereo not drawn) [4-amino-7-[3,4-dihydroxy-5-(hydroxymethyl)oxolan-2-yl]pyrrolo[2,3-d]pyrimidine-5-carbothioamide] showed an EC50 of 3.48 µM.

Take `COc1cccc(C(=O)ON=C(N)c2ccccn2)c1` [The compound has not trivial name.]: the response was half-maximal at 22.7 µM (EC50).

`O=C1/C(=C/c2ccc(O)c(O)c2)Oc2cc(O)ccc21` [MLS000863576] showed an EC50 of 9.63 µM.

Molecule `Nc1cc(C(=O)O)c(N)c2c1C(=O)c1ccccc1C2=O` [1,4-bis(azanyl)-9,10-bis(oxidanylidene)anthracene-2-carboxylic acid] gave an EC50 of 3.55 µM.

For the molecule `COc1cc(C=C2SC(Nc3ccc(Cl)c(C(=O)O)c3)=NC2=O)c(Br)c(Br)c1O` [2-Chloro-5-[5-(2,3-dibromo-4-hydroxy-5-methoxy-benzylidene)-4-oxo-thiazolidin-2-ylideneamino]-benzoic acid], the EC50 came to 15.9 µM.

Turning to `CC(C)n1cnc2c(Nc3cccc(Cl)c3)nc(NCCCO)nc21`, a half-maximal effect (EC50) was put at 1.84 µM.

Regarding `Cc1ccc(-c2nn(CCC(=O)O)cc2/C=C\C(=O)c2ccc(Br)cc2)cc1` [3-[4-[(Z)-3-(4-bromophenyl)-3-oxoprop-1-enyl]-3-(4-methylphenyl)pyrazol-1-yl]propanoic acid], the EC50 was 19.3 µM. This EC50 lies about 10-fold higher than the previous one.

Molecule `C=CC(=O)Nc1ccc(Nc2nc(NC3CCC(N(C)C)CC3)nc3c2ncn3C(C)C)cc1` (stereo not drawn) [N-[4-[[2-[[4-(dimethylamino)cyclohexyl]amino]-9-propan-2-yl-purin-6-yl]amino]phenyl]prop-2-enamide] yielded an EC50 of 0.883 µM.

With `CCCCCCCCCCCCCCCCn1cc[n+](C)c1` [1-cetyl-3-methyl-imidazol-3-ium;bromide], the EC50 was > 120 µM.

Consider `CCCCCCCCCCOC(=O)Cn1c(COc2ccc(Cl)cc2)[n+](C)c2ccccc21` [decyl 2-[2-[(4-chloranylphenoxy)methyl]-3-methyl-benzimidazol-3-ium-1-yl]ethanoate;chloride], for which the EC50 was > 120 µM.

As for `COc1ccc(C(=O)ON=C(N)c2ccccc2)cc1`, the EC50 is > 120 µM.

`CN(C)C/C=C/C(=O)Nc1cccc(-c2c[nH]c3ncnc(Oc4ccc(NC(=O)CC(=O)Nc5ccc(F)cc5)cc4F)c23)c1` gave an EC50 of 6.32 µM.

The record behind these values is BindingDB's records for doi:10.7270/Q2B27SRF (Broad Institute, 2010).
